How the values were obtained:
bean plants (Vicia faba) [1] = experiment: VOC induction assay on bean plants (Vicia faba) in hydroponic medium; assay type: in vivo; settings: 10 μg
Protocol: Broad beans (Vicia faba cv Histal) were potted in sterile vermiculite and kept in a glasshouse at 23° C. After 7 days, the seedlings were gently removed from the vermiculite, the cotyledons peeled and the roots rinsed with bidistilled water, carefully brushing away all soil particles. They were then placed in glass beakers containing a hydroponic solution made with Hoagland's modified basalt salt mixture, (MP, USA), and maintained in an environmental chamber at 23° C. Each beaker, containing three seedlings, was wrapped in aluminum foil to hold the plants in position and to prevent the light from reaching the roots. Every 4 days, the hydroponic solution in each beaker was renewed. After 10 days plants were treated with L-DOPA (10 μg), D-DOPA (10 μg) or HPLC water (control, 10 μl) dissolved in 30 mL of distilled water.
(§1) The bean plants were enclosed in a glass vessel with a volume of 3.2 I. The bottom of the vessel was enclosed around the top of the pot. Air that had been purified by passage through an activated charcoal filter (BDH, 10-14 mesh) was pushed into (750 ml·min^−1) and pulled (700 ml·min^−1) out of the vessel. VOCs were trapped onto Porapack™ (Porous Polymer Adsorbent) 50/80 mesh (50 mg; Supelco, Bellefonte, USA) held in glass tubing (5 mm outer diameter) by two plugs of silanised glass wool. The Porapack™ tube was conditioned by washing with redistilled diethyl ether (2 ml) and heating at 130° C. for 4 h under a stream of purified nitrogen.
(§2) VOCs collected on the Porapak™ were eluted with 750 μL of redistilled diethyl ether and the samples were stored at −20° C. until analysis.
(§3) For the analysis, four samples (1 μL) from each treatment (L-DOPA, D-DOPA and Control) were analyzed on an Agilent 7820A Gas Chromatograph (Agilent Technologies, Santa Clara, California, USA), equipped with a cool column injector, flame ionization detector (FID), and a HP-1 capillary GC column (50 m×0.32 mm internal diameter×0.52 μm film thickness). Hydrogen was the carrier gas. The oven temperature was maintained at 30° C. for 0.1 min, then programmed to increase at 10° C.·min^−1 until 250° C., and then held for 38 min. Tentative identifications were made by Kovats' Index values and GC peak enhancement on GC columns of HP-1, using authentic samples of chemicals compounds.

Aphidius ervi = experiment: Behavioral assay in two-way olfactometer, bean plants (Vicia faba) treated by soil application; assay type: in vivo; settings: 10 min, Vicia faba 3-4 weeks, versus clean plant
Protocol: Broad bean seeds (Vicia faba cv Aguadulce supersimonia) were planted individually in plastic pots (6×6×9 cm) filled with Traysubstrat topsoil (Klasmann-Deilmann GmbH) or a mixture of agriperlite, vermiculite, and sand (1:1:1) and grown in an environmental chamber (24±2° C., 45±10% RH, 14 h: 8 h L: D).
For this example, bean plants of 3-4 weeks were used. Plants were treated by soil application of the two isomers of DOPA: 3,4-dihydroxy-L-phenylalanine (Alfa Aesar, CAS Number 59-92-7) and 3,4-dihydroxy-D-phenylalanine (Sigma Aldrich, CAS Number 5796-17-8).
Untreated plants were also used as control.
The attractiveness of beneficial insects, specifically Aphidius ervi, towards a bean plants treated with the isomers of DOPA compared to clean bean plant (control) was evaluated in an olfactometer.
The behavioral response of A. ervi were evaluated over 10 min in a two-way olfactometer. Only active insects, i.e. insects that spent at least 60 s in the treatment (trt) and/or control (cnt) arm of the olfactometer were taken into account.
The results obtained in this example are expressed as a percentage of residence time in each olfactometer arm where the parasitoid remained, relative to the total time spent in the two arms. Paired t-tests were conducted using R (free software environment for statistical computing and graphics).

bean plants (Vicia faba) [2] = experiment: VOC induction assay on bean plants (Vicia faba) in soil/vermiculite; assay type: in vivo; settings: 10 μg in 30 mL, 24 h, 6-methyl-5-hepten-2one, cis-3-hexen-1-ol, cis-3-hexenyl acetate, ocimene
Protocol: (§4) Broad beans (Vicia faba cv Histal) plants were grown in a mixture of sterile soil/vermiculite (7:3) for 10 days, and treated with L-DOPA (10 μg), D-DOPA (10 μg) or HPLC water (control, 10 μl) dissolved in 30 mL of distilled water.
(§5) After 24 h, the volatile organic compounds (VOCs) emitted from the plant were collected through a dynamic headspace.
as §1, with “nitrogen. […]” for “nitrogen.”
(§6) For the analysis, four samples (1 μL) from each treatment (L-DOPA, D-DOPA and Control) were analyzed on an Agilent 7820A Gas Chromatograph (Agilent Technologies, Santa Clara, California, USA), equipped with a cool column injector, flame ionization detector (FID), and a HP-1 capillary GC column (50 m×0.32 mm internal diameter×0.52 μm film thickness). […]

[3] = test system: bean plants (Phaseolus vulgaris); experiment: VOC induction assay on bean plants (Phaseolus vulgaris) in hydroponic medium; assay type: in vivo; settings: 10 μg, 24 h
Protocol: Beans (Phaseolus vulgaris cv CGB0002) were sown in sterile vermiculite and kept in a glasshouse at 27° C. After 17 days, the seedlings were gently removed from the vermiculite. They were then placed in glass beakers containing 150 mL of hydroponic solution made with Hoagland's modified basalt salt mixture, (MP, USA), and maintained in an environmental chamber at 27° C. Each beaker, containing one seedling, was wrapped in aluminum foil to hold the plants in position and to prevent the light from reaching the roots. After 2 days plants were treated with L-DOPA (10 μg), D-DOPA (10 μg) or HPLC water (control, 10 μl).
as §5, §1, §2, §3

[4] = test system: bean plant (Vicia faba) leaves; experiment: Estimation of total phenolic content in bean plant (Vicia faba) leaves, Folin-Ciocalteu assay; assay type: in vivo; settings: soil/vermiculite, 10 μg in 30 mL, 24 h
Protocol: The estimation of total phenolic content in bean plant leaves (Vicia faba) was based on the procedure developed by Ainsworth, E.A. et al. (2007) using Folin-Ciocalteu (F-C) reagent. F-C assay is commonly been used to assay total phenolic content. The F-C assay provides a convenient, rapid, and simple estimation of the content of total phenolics, and other oxidation substrates in plant extracts.
as §4, with “bean” for “beans”, “water. After 24 h harvest leaves material (approximately 20 mg) in screw-capped tubes and freeze immediately in liquid nitrogen.” for “water.”
To homogenize the tissue, three tungsten carbide beads and 2 ml of ice-cold 95% (vol/vol) methanol were added in each sample tube and insert samples into pre-cooled Teflon adaptors. Tissue was homogenized for 5 min at 30 Hz. […]
Finally, a […] sample, standard or blank from the assay tube were transferred to a clear 96-well micro-plate and the absorbance of each was measured at 750 nm using a spectrophotometer.
For calculate the total phenolic content, first a standard curve from the blank-corrected A750 of the gallic acid standards was calculated. […]

[5] = test system: bean plants (Phaseolus vulgaris); experiment: VOC induction assay on bean plants (Phaseolus vulgaris) in soil; assay type: in vivo; settings: 10 μg in 30 mL, 24 h, cis-3-hexenyl acetate and ocimene
Protocol: Bean (Phaseolus vulgaris cv CGB0002) plants were grown in sterile soil for 5 days, and treated with L-DOPA (10 μg), D-DOPA (10 μg) or HPLC water (control, 10 μl) dissolved in 30 mL of distilled water.
as §5
as §1, with “nitrogen. […]” for “nitrogen.”
as §6

[6] = test system: wheat plants (Triticum monococcum); experiment: VOC induction assay on wheat plants (Triticum monococcum) in soil; assay type: in vivo; settings: 10 μg in 30 mL, 24 h
Protocol: Wheat (Triticum monococcum VAR Tocayo) plants were grown in sterile soil for 15 days (20 seeds per pot), and treated with L-DOPA (10 μg), D-DOPA (10 μg) or HPLC water (control, 10 μl) dissolved in 30 mL of distilled water.
as §5
as §1, with “wheat” for “bean”, “nitrogen. […]” for “nitrogen.”
as §6

many plants = settings: allelochemical effect, Nishihara et al (2004); cited from earlier work

Structure (SMILES): N[C@H](Cc1ccc(O)c(O)c1)C(=O)O [D-DOPA, D-3,4-dihydroxyphenylalanine]
- concentration of 6-methyl-5-hepten-2one versus control (bean plants (Vicia faba) [1]): A change is observed
- concentration of cis-3-hexenyl acetate versus control (bean plants (Vicia faba) [1]): A change is observed
- concentration of ocimene versus control (bean plants (Vicia faba) [1]): A change is observed
- residence time of A. ervi females on treated bean plants, higher than for untreated plants (Aphidius ervi): approx. +20%
- concentration of VOCs (FID response) emitted by the plant versus control (bean plants (Vicia faba) [2]): A change is observed
- concentration of cis-3-hexen-1-ol versus control [3]: A change is observed
- concentration of ocimene versus control [3]: A change is observed
- total phenolic content versus untreated plants (control) [4]: higher

Structure (SMILES): N[C@@H](Cc1ccc(O)c(O)c1)C(=O)O [L-DOPA, L-3,4-dihydroxyphenylalanine]
- concentration of 6-methyl-5-hepten-2one versus control (bean plants (Vicia faba) [1]): A change is observed
- concentration of cis-3-hexenyl acetate versus control (bean plants (Vicia faba) [1]): A change is observed
- concentration of ocimene versus control (bean plants (Vicia faba) [1]): A change is observed
- concentration of VOCs (FID response) versus control [5]: A change is observed
- residence time of A. ervi females on treated bean plants, higher than for untreated plants (Aphidius ervi): approx. +20%
- concentration of VOCs (FID response) emitted by the plant versus control (bean plants (Vicia faba) [2]): A change is observed
- concentration of ocimene versus control [6]: A change is observed
- growth of plants (especially radicle and hypocotyl) (many plants): reduced the growth
- concentration of 6-methyl-5-hepten-2one versus control [3]: A change is observed
- concentration of cis-3-hexen-1-ol versus control [3]: A change is observed
- concentration of cis-3-hexenyl acetate versus control [3]: A change is observed
- concentration of ocimene versus control [3]: A change is observed
- total phenolic content versus untreated plants (control) [4]: higher
